Experimental data as given in US5464825A, “Raising glutathione equivalent levels using N-acyl glutathione monoesters” (Cornell Research Foundation, Inc., priority 1994, dated 1995).
Where two headings read alike, the source gives them in different places. *1 amine or outer side, *2 acyl side, *3 side chain or, on linkers, in order; H or OH if unused. Where a SMILES comes first, the peptide text is derived from it. [ ]: non-standard residue; d: D form. γGlu = O=C(O)[C@H](CCC(=O)[*:2])N[*:1]

[1] = kidney, 1 hour after 10 mmol/kg i.p., fasted BSO treated mice
[2] = kidney, 2.5 hours after 10 mmol/kg i.p., fasted BSO treated mice
[3] = liver, 1 hour after 10 mmol/kg i.p., fasted BSO treated mice
[4] = liver, 2.5 hours after 10 mmol/kg i.p., fasted BSO treated mice
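Note: mice fasted 18 h, given 10 mM BSO in drinking water plus BSO 2 mmol/kg 13 h and 3 h before dosing, controls got 0.9% NaCl, mean ± SD.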

Procedure: The N-acetyl GSH monoethyl ester was used. A solution of N-acetyl GSH monoester was prepared in aseptic water. Mice weighing 18 to 25 grams, obtained from Taconic Farms, Inc., (TAC:(SWFBR)), were fasted for 18 hours before injection with NAGEE. At the time of fasting, the drinking water contains 10 mM L-buthionine-SR-sulfoximine (BSO). All mice are injected with L-buthionine-SR-sulfoximine (BSO) (2 millimoles per kilogram; intraperitoneally) 13 hours before NAGEE injection. The mice are injected again with L-buthionine-SR-sulfoxminie (BSO) (2 millimoles per kg; subcutaneously) 3 hours prior to NAGEE injection. NAGEE or GSH are administered intraperitoneally (10 mmol/kg; the pH of the solution is adjusted to about 7 with sodium hydroxide). The GSH solution also contains ethanol at 10 mmol/kg. Control mice are given equivalent volumes of 0.9% sodium chloride. The mice were then injected intraperitoneally with the N-acetyl GSH monoethyl ester in a dose of 10 millimoles per kilogram. […] Using groups of 4 or 5 mice each, values are given as means plus or minus S.D.

Q: With `N[C@@H](CCC(=O)N[C@@H](CS)C(=O)NCC(=O)O)C(=O)O` [GSH, L-γ-glutamyl-L-cysteinylglycine, reference compound] as the compound, how does the “effect on glutathione levels in the kidney as compared to the controls (in words)” value (kidney, 10 mmol/kg i.p., fasted BSO treated mice) read?
A: only a slight effect

Q: And the “GSH level, kidney” value [1]?
A: 1.9 µmol/g

Q: What about the “GSH level, kidney” value [2] of the same compound?
A: 1.01 µmol/g

Q: What about the “GSH level, liver” value [3] of the same compound?
A: 1.38 µmol/g

Q: And the “GSH level, liver” value [4]?
A: 0.45 µmol/g

Q: Which results are given for `CCOC(=O)CNC(=O)[C@H](CS)NC(=O)CC[C@H](NC(C)=O)C(=O)O` [NAGEE, N-acetyl glutathione monoethyl ester] (Ac-[γGlu]-Cys-Gly-OEt)?
A: levels of GSH monoethyl ester, NAGEE and NAG found (in words) (kidney, 10 mmol/kg i.p.): substantial levels; GEE level, kidney [1]: 0.92 µmol/g; GSH equivalents total, kidney [1]: 10.51 µmol/g; GSH level, kidney [1]: 1.6 µmol/g; NAG level, kidney [1]: 1.43 µmol/g; NAGEE level, kidney [1]: 5.54 µmol/g; GEE level, kidney [2]: 0.52 µmol/g; GSH equivalents total, kidney [2]: 5.67 µmol/g; GSH level, kidney [2]: 2.3 µmol/g; NAG level, kidney [2]: 0.79 µmol/g; NAGEE level, kidney [2]: 2.10 µmol/g; GSH level of the kidney (in words, FIGS. 1 and 2) (kidney, 2.5 hours after administration, 10 mmol/kg i.p.): increased substantially; GSH level of the kidney (in words) (kidney, at 5 hours, 10 mmol/kg i.p.): declined; GSH mono-ethyl ester found in the liver (in words) (liver, 10 mmol/kg i.p.): a little; GEE level, liver [3]: 0.18 µmol/g; GSH equivalents total, liver [3]: 14.28 µmol/g; GSH level, liver [3]: 0.45 µmol/g; NAG level, liver [3]: 4.80 µmol/g; NAGEE level, liver [3]: 8.85 µmol/g; GEE level, liver [4]: 0.15 µmol/g; GSH equivalent total, liver [4]: 7.17 µmol/g; GSH level, liver [4]: 0.71 µmol/g; NAG level, liver [4]: 3.38 µmol/g; NAGEE level, liver [4]: 2.93 µmol/g; liver levels of N-acetyl GSH (in words) (liver, at 1 and 2.5 hours, 10 mmol/kg i.p.): increased dramatically; liver levels of GSH (in words) (liver, at 2.5 hours, 10 mmol/kg i.p.): increased moderately
